Data from the CheMixHub viscosity set.
Where “and” joins values, the source holds several entries; their conditions need not be identical. Equal values may be shown once. ± gives the uncertainty stated by the source.

Assay: xn = mol fraction of the nth substance listed

C=C(C)C(=O)OC + COCCO
viscosity [mPa·s], 101.3 kPa
Conditions | 298.15 K | 308.15 K
x1 = 0.0557 | 1.449 ± 0.009 | 1.149 ± 0.008
x1 = 0.1541 | 1.237 ± 0.008 | 1.01 ± 0.007
x1 = 0.2554 | 1.068 ± 0.007 | 0.892 ± 0.006
x1 = 0.3538 | 0.941 ± 0.006 | 0.799 ± 0.006
x1 = 0.4561 | 0.836 ± 0.006 | 0.72 ± 0.005
x1 = 0.4992 | 0.799 ± 0.005 | 0.691 ± 0.005
x1 = 0.553 | 0.759 ± 0.005 | 0.658 ± 0.005
x1 = 0.6543 | 0.696 ± 0.005 | 0.606 ± 0.004
x1 = 0.7542 | 0.65 ± 0.005 | 0.564 ± 0.004
x1 = 0.8539 | 0.616 ± 0.004 | 0.529 ± 0.004
x1 = 0.9543 | 0.592 ± 0.004 | 0.502 ± 0.004

CC(=O)Oc1ccccc1 + CCCCCOC(C)=O
Conditions | viscosity [mPa·s]
298.15 K, 101 kPa, x1 = 0.5 | 0.9319 ± 0.0092

C=C(C)C(=O)OC + CCCCOCCO
viscosity [mPa·s], 101.3 kPa
Conditions | 298.15 K | 308.15 K
x1 = 0.0589 | 2.45 ± 0.015 | 1.998 ± 0.013
x1 = 0.1467 | 2.063 ± 0.013 | 1.704 ± 0.011
x1 = 0.2571 | 1.682 ± 0.011 | 1.408 ± 0.009
x1 = 0.3556 | 1.416 ± 0.009 | 1.196 ± 0.008
x1 = 0.4555 | 1.201 ± 0.008 | 1.021 ± 0.007
x1 = 0.5016 | 1.117 ± 0.007 | 0.952 ± 0.006
x1 = 0.5559 | 1.028 ± 0.007 | 0.878 ± 0.006
x1 = 0.6734 | 0.868 ± 0.006 | 0.742 ± 0.005
x1 = 0.7556 | 0.778 ± 0.005 | 0.664 ± 0.005
x1 = 0.857 | 0.686 ± 0.005 | 0.583 ± 0.004
x1 = 0.9547 | 0.613 ± 0.004 | 0.518 ± 0.004

ClCCCCCCCl + Cc1ccccc1C
viscosity [mPa·s], 101 kPa
Conditions | x1 = 0.09207 | x1 = 0.1778 | x1 = 0.2577 | x1 = 0.3658 | x1 = 0.469 | x1 = 0.5509 | x1 = 0.6697 | x1 = 0.7481 | x1 = 0.8853
308.15 K | 0.731 ± 0.016 | 0.797 ± 0.017 | 0.859 ± 0.018 | 0.954 ± 0.02 | 1.049 ± 0.022 | 1.131 ± 0.024 | 1.253 ± 0.027 | 1.336 ± 0.029 | 1.493 ± 0.032
313.15 K | 0.689 ± 0.015 | 0.75 ± 0.016 | 0.809 ± 0.017 | 0.901 ± 0.019 | 0.994 ± 0.021 | 1.073 ± 0.023 | 1.191 ± 0.025 | 1.272 ± 0.027 | 1.419 ± 0.03
318.15 K | 0.652 ± 0.014 | 0.708 ± 0.015 | 0.767 ± 0.016 | 0.848 ± 0.018 | 0.932 ± 0.02 | 1.001 ± 0.021 | 1.1 ± 0.024 | 1.169 ± 0.025 | 1.287 ± 0.027

CCCCCCCCCCCC(=O)[O-].[Na+] + CCCCCCCCCC(=O)O
101 kPa, x1 = 0.2
Conditions | viscosity [mPa·s]
293.15 K | 76.59 ± 1.1
298.15 K | 60.48 ± 0.83
303.15 K | 48.43 ± 0.67
308.15 K | 39.29 ± 0.54
313.15 K | 32.27 ± 0.45
318.15 K | 26.79 ± 0.37
323.15 K | 22.48 ± 0.31

C=C(C)C(=O)OC + C1CCCCC1
303.15 K, 101 kPa
Conditions | viscosity [mPa·s]
x1 = 0.1178 | 0.6811 ± 0.0067
x1 = 0.2021 | 0.6254 ± 0.0063
x1 = 0.3973 | 0.5474 ± 0.0059
x1 = 0.4984 | 0.5261 ± 0.0058
x1 = 0.5963 | 0.5188 ± 0.0058
x1 = 0.804 | 0.5141 ± 0.0058
x1 = 0.9019 | 0.5099 ± 0.0057

Cc1cccc(C)c1O + C[N+](C)(C)CCO.[Cl-]
298.15 K, 101.33 kPa
Conditions | viscosity
x1 = 0.7 | 151.2 ± 58 mPa·s
x1 = 0.8 | 86.79 ± 27 mPa·s and 61.87 ± 16 mPa·s and 54.12 ± 13 mPa·s
x1 = 0.9 | 50.22 ± 12 mPa·s

[Sn] + [Ga]
323 K, 100 kPa
Conditions | viscosity [mPa·s]
x1 = 0.085 | 1.693 ± 0.09
x1 = 0.164 | 2.223 ± 0.098
x1 = 0.37 | 3.637 ± 0.12
x1 = 0.638 | 5.381 ± 0.16
x1 = 0.841 | 6.576 ± 0.19

C[N+](C)(C)CCC[N+]1(C)CCCCC1.N#C[N-]C#N.N#C[N-]C#N + CCO
viscosity [mPa·s], 100 kPa
Conditions | 293.15 K | 303.15 K | 323.15 K
x1 = 0.5002 | 280.5 ± 32 | – | 70.55 ± 7.1
x1 = 0.7998 | – | 828.4 ± 110 | –

[I-].[Na+] + O
310.15 K, 101 kPa
Conditions | viscosity [mPa·s]
x1 = 0.000186 | 0.7003 ± 0.0061
x1 = 0.000929 | 0.6978 ± 0.0062
x1 = 0.001834 | 0.6993 ± 0.0062
x1 = 0.002695 | 0.7053 ± 0.0063
x1 = 0.003679 | 0.7179 ± 0.0064
x1 = 0.005197 | 0.749 ± 0.0067
x1 = 0.005988 | 0.7709 ± 0.0069
